In PMC8026246 (Bioorganic Chemistry, 2021):

Biological target: SARS-CoV-2 M^pro (Severe acute respiratory syndrome coronavirus 2, UniProt P0DTD1)
Format: binding
Settings: pH 6.8

For `CCN(CC)c1ccc2c(-c3ccccc3C(=O)O)c3ccc(=[N+](CC)CC)cc-3oc2c1` [rhodamine B], the “Fluorescent labeling of M^pro (gel, UV 365 nm)” value was “could not label M^pro”.
